Experimental data taken from ChEMBL document CHEMBL1201862, “PubChem BioAssay data set” (2004).
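Where inhibition never reached the appropriate level, the endpoint shown equals the highest concentration tested. Otherwise, values were interpolated linearly from a five-concentration, 48-hour dose response in 96-well plates. Abbreviation: GI50, concentration required for 50% inhibition of growth.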 The source made the active and inactive calls. Cut-off read from the data, not from the text of the source: active = GI50 up to about 1.1 µM and inactive = higher.

Tests used:
Assay in all cases: growth of human tumour cells (NCI), 48 h
[1] = tested on: COLO 205
[2] = tested on: HCT-116
[3] = tested on: HOP-92
[4] = tested on: HT-29
[5] = tested on: IGROV-1
[6] = tested on: KM12
[7] = tested on: MOLT-4
[8] = tested on: Malme-3M
[9] = tested on: OVCAR-4
[10] = tested on: PC-3
[11] = tested on: RXF 393
[12] = tested on: SK-MEL-28
[13] = tested on: SK-MEL-5
[14] = tested on: SR
[15] = tested on: SW-620
[16] = tested on: TK-10
[17] = tested on: UACC-257
[18] = tested on: Hs-578T
[19] = tested on: MDA-MB-435
[20] = tested on: T47D

Measured: GI50

Cc1cccc2c1nc1n2C(=O)c2ccccc2-1
inactive: [1] > 100 µM | [2] > 100 µM | [3] > 100 µM | [4] > 100 µM | [5] > 100 µM | [6] > 100 µM | [7] > 100 µM | [8] > 100 µM | [9] > 100 µM | [10] > 100 µM | [11] > 100 µM | [12] > 100 µM | [13] > 100 µM | [14] > 100 µM | [15] > 100 µM | [16] > 100 µM | [17] > 100 µM

Cc1ccc2nc(CN(CCO)CCO)cc(=O)n2c1
inactive: [1] > 100 µM | [2] > 100 µM | [3] > 100 µM | [4] > 100 µM | [18] > 100 µM | [5] > 100 µM | [6] > 100 µM | [19] > 100 µM | [7] > 100 µM | [8] > 100 µM | [9] > 100 µM | [10] > 100 µM | [12] > 100 µM | [14] > 100 µM | [15] > 100 µM | [16] > 100 µM | [17] > 100 µM

C#CCNC(=O)NCCCCC(NC(C)=O)C(=O)NCc1ccccc1 (stereo not drawn)
inactive: [1] > 100 µM | [2] > 100 µM | [3] > 100 µM | [4] > 100 µM | [5] > 100 µM | [6] > 100 µM | [7] > 100 µM | [8] > 100 µM | [9] > 100 µM | [11] > 100 µM | [12] > 100 µM | [13] > 100 µM | [14] > 100 µM | [15] > 100 µM | [16] > 100 µM | [17] > 100 µM

Oc1ccc(O)c(Sc2nnc(CCCCCCCCc3nnc(Sc4cc(O)ccc4O)o3)o2)c1
inactive: [1] 48.3 µM | [2] 18.1 µM | [3] 24 µM | [4] > 100 µM | [5] 96.8 µM | [6] 26.7 µM | [19] 18.2 µM | [7] 49.5 µM | [8] 57.3 µM | [9] 33.1 µM | [10] > 100 µM | [12] > 100 µM | [13] > 100 µM | [15] 31.3 µM | [16] > 100 µM | [17] > 100 µM

N#Cc1cc([N+](=O)[O-])ccc1NC(=O)C(=O)C(C(=O)c1ccc2ccccc2c1)C1OCc2ccccc21 (stereo not drawn)
inactive: [1] 9.4 µM | [2] 5.01 µM | [3] 7.01 µM | [4] 12.9 µM | [5] 17.6 µM | [6] 15.4 µM | [7] 2.18 µM | [8] 8.41 µM | [9] > 25.5 µM | [11] 3.73 µM | [12] 4.18 µM | [13] 9.06 µM | [14] 2.88 µM | [15] 6.27 µM | [16] 22.3 µM | [17] 9.33 µM

COC(=O)C1(C(=O)OC)N=C(C)OC1c1ccoc1 (stereo not drawn)
inactive: [1] > 100 µM | [2] > 100 µM | [3] > 100 µM | [6] > 100 µM | [19] > 100 µM | [7] > 100 µM | [9] > 100 µM | [10] > 100 µM | [11] > 100 µM | [12] > 100 µM | [13] > 100 µM | [14] > 100 µM | [15] > 100 µM | [20] > 100 µM | [16] > 100 µM | [17] > 100 µM

COC(=O)[C@](NC(=O)OCc1ccccc1)([C@@H](C)Sc1ccc(C)cc1)C(F)(F)F
inactive: [1] 19.2 µM | [2] 35.4 µM | [4] 34.7 µM | [18] 44.9 µM | [5] 16.5 µM | [6] 42.7 µM | [19] 49.2 µM | [7] 21 µM | [8] 55.7 µM | [9] 32.3 µM | [10] 43 µM | [12] 91.8 µM | [13] 18.3 µM | [14] 31.1 µM | [15] 27.2 µM | [17] 35 µM

COc1nc(=O)n(C2CC(F)C(CO)O2)cc1C (stereo not drawn)
inactive: [1] > 100 µM | [2] > 100 µM | [4] > 100 µM | [18] > 100 µM | [5] > 100 µM | [6] > 100 µM | [19] > 100 µM | [7] > 100 µM | [8] > 100 µM | [9] > 100 µM | [12] > 100 µM | [13] > 100 µM | [14] > 100 µM | [15] > 100 µM | [20] > 100 µM | [16] > 100 µM | [17] > 100 µM

CN(C)CCNC(=O)c1cccc2c(NC(CS)C(=O)O)c3ccccc3nc12 (stereo not drawn)
inactive: [1] 3.01 µM | [2] 4.73 µM | [3] 19.9 µM | [4] 4.94 µM | [5] 4.88 µM | [6] 8.47 µM | [19] 4.49 µM | [7] 3.17 µM | [8] 2.52 µM | [9] 17.1 µM | [10] 6.07 µM | [12] 10.7 µM | [13] 3.07 µM | [14] 96.2 µM | [15] 4.05 µM | [16] 28.8 µM | [17] 10.1 µM

ClCCN(CC#CCCCC#CCN(CCCl)CCCl)CCCl
inactive: [1] 15.6 µM | [2] 10.4 µM | [3] 18.4 µM | [4] 11.4 µM | [5] 14.2 µM | [6] 19.2 µM | [7] 1.66 µM | [8] 14.2 µM | [9] 20.6 µM | [11] 15.5 µM | [12] 19.1 µM | [13] 11.3 µM | [14] 2.03 µM | [15] 10.2 µM | [16] 22.8 µM | [17] 13.8 µM

CC(C)C(Br)CCC1=CCC(Br)(Br)C1 (stereo not drawn)
inactive: [1] 15.7 µM | [2] 14.6 µM | [3] 5.2 µM | [4] 13.5 µM | [18] 18.6 µM | [5] 3.21 µM | [6] 13.3 µM | [19] 10.5 µM | [7] 3.48 µM | [8] 14.6 µM | [9] 9.1 µM | [10] 14.9 µM | [11] 15.2 µM | [12] 15.6 µM | [13] 5.45 µM | [14] 2.62 µM | [15] 3.52 µM | [16] 17.5 µM | [17] 14.5 µM

Nc1cc2nc(-c3ccccc3)cn2cn1
inactive: [1] > 100 µM | [2] > 100 µM | [4] 47.2 µM | [6] 66.2 µM | [19] > 100 µM | [7] > 100 µM | [8] 20.2 µM | [9] > 100 µM | [10] 50 µM | [11] 50.9 µM | [12] > 100 µM | [13] 35.5 µM | [15] > 100 µM | [20] > 100 µM | [16] 50.5 µM
